Where two headings read alike, the source gives them in different places.

For data set [1] the following is noted: 0.25 mg digoxin, cited from earlier work.
Data set [2] is described as follows: Experimental maximum plasma concentration of digoxin in patients by MDR1 exon 26 (C3435T) polymorphism. It is filed as in vivo, human. The conditions noted are these: type TT versus wild type. The text has this:
The transport protein which has been most widely studied and described in the literature is p-glycoprotein (P-Gp) which, besides other organs, is expressed particularly in the gut where it can have an influence on the absorption of orally applied active agents. The associated gene is generally identified as MDR1. MDR1 may be present in different alleles, it being known that these lead to different activity of the associated protein (see Martin F. Fromm, The influence of MDR1 polymorphisms on P-glycoprotein expression and function in humans, Advanced Drug Delivery Reviews 54, 1295 (2002)). For P-Gp, tables of pharmaceutical active agents which are a substrate for it have been published (see for example C. J. Matheny et al., Pharmacokinetic and Pharmacodynamic Implications of P-glycoprotein Modulation, Pharmacotherapy, 21, 778 (2001)). One example of such a substrate is digoxin.
For instance, the Cmax values (maximum plasma concentration) listed in Table 1 are given for the polymorphism in exon 26 (C3435T).

The conditions of data set [3]: human.

As usually defined, the clearance is the rate of elimination divided by the concentration. A higher clearance goes with a high capacity for elimination. One may read the Papp as the rate of passage across a membrane or cell layer, normalised by area and donor concentration. Read a low Papp as poor permeation. As usually defined, the fraction unbound is free concentration divided by total concentration. For `C[C@H]1O[C@@H](O[C@H]2[C@@H](O)C[C@H](O[C@H]3[C@@H](O)C[C@H](O[C@H]4CC[C@@]5(C)[C@H](CC[C@@H]6[C@@H]5C[C@@H](O)[C@]5(C)[C@@H](C7=CC(=O)OC7)CC[C@]65O)C4)O[C@@H]3C)O[C@@H]2C)C[C@H](O)[C@@H]1O` [digoxin], the Cmax experiment in data set [1] (patients with CC (wild type) polymorphism in exon 26 (C3435T) of MDR1, plasma) was 1.6 ng/mL; in data set [1] (patients with TT (homozygotic) polymorphism in exon 26 (C3435T) of MDR1, plasma), 2.1 ng/mL. Further, in data set [2], the “experimentally found increase of Cmax” value was determined as 30%. The clearance in data set [3] is 0.48 mL/min/kg. The apparent permeability coefficient (Papp) in data set [3] (not told) amounted to 1.4 ×10⁻⁶ cm/s. Further, the fraction unbound in data set [3] (plasma) came out at 0.73.

These data come from US20050074803A1, “Method for determining an active agent dose” (Bayer Technology Services GmbH, priority 2003, published 2005).
